Source: ChEMBL document CHEMBL6078716, “Advances in Psychedelic Therapeutics: Novel Prodrugs and Derivatives for Enhanced Mental Health Treatment” (ACS Med Chem Lett, 2024)

Experiments:
[1] = biological target: T1, 5-hydroxytryptamine receptor 1A (Homo sapiens, UniProt P08908); assay: Binding affinity to 5-HT1A receptor (unknown origin) expressed in HEK293 cells assessed as inhibition constant; format: cell-based
T1 sequence (P08908 whole entry): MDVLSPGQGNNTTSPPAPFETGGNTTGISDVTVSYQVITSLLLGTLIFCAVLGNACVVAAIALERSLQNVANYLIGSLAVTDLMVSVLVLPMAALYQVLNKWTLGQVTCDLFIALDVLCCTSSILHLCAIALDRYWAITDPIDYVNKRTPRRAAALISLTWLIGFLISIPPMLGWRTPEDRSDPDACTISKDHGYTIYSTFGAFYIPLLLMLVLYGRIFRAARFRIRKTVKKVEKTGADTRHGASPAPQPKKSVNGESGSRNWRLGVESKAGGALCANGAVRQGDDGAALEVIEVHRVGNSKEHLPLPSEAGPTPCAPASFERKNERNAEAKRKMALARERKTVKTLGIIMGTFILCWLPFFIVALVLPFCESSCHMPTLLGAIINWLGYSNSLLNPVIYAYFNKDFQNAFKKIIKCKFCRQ

[2] = biological target: 5-hydroxytryptamine receptor 2A (Homo sapiens, UniProt P28223); assay: Binding affinity to 5-HT2A receptor (unknown origin) expressed in HEK293 cells assessed as inhibition constant; format: cell-based
Chain of 5-hydroxytryptamine receptor 2A (P28223 whole entry): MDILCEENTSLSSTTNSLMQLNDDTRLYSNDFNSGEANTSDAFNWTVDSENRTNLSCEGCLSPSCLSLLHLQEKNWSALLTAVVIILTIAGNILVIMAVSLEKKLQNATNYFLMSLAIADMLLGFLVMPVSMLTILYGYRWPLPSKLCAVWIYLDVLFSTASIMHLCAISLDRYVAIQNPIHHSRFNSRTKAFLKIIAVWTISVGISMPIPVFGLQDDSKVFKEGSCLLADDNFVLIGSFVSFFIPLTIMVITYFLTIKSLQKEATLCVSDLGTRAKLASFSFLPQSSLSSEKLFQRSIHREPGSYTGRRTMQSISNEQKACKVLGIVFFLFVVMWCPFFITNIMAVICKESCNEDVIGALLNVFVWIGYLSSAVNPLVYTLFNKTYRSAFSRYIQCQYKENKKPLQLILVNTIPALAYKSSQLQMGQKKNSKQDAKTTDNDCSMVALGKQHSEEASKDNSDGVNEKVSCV

CN(C)CCc1c[nH]c2cccc(O)c12 [PSILOCIN]
Ki [1]: 0.567 µM

CN(C)CCc1c[nH]c2cccc(OP(=O)(O)O)c12 [PSILOCYBIN]
Ki [1]: > 10 µM
Ki [2]: > 10 µM
